Several values for one entry are separate records, joined by “and”; a condition that tells them apart may be missing. Equal values may be shown once. Read-outs that look alike come from different tables or passages of the source. Marks after values point to notes of the source that are not given here.
Columns and labels:
[1] = CPT directional transport across MDCK II/wt cell monolayers; format: in vitro ADME, dog; conditions: dog, MDCK, pH 7.4
MDCK II/wt cells = assay: as above; format: in vitro ADME, dog; conditions: MDCK II/wt
Caco-2 cells [2] = assay: CPT directional transport across Caco-2 cell monolayers; format: in vitro ADME, human
[3] = molecular target: human P-glycoprotein (PGP) (ABCB1) (Homo sapiens, UniProt P08183); assay: CPT directional transport across MDCK II/PGP cell monolayers; format: in vitro ADME
Sequence of human P-glycoprotein (PGP) (ABCB1) (P08183 whole entry): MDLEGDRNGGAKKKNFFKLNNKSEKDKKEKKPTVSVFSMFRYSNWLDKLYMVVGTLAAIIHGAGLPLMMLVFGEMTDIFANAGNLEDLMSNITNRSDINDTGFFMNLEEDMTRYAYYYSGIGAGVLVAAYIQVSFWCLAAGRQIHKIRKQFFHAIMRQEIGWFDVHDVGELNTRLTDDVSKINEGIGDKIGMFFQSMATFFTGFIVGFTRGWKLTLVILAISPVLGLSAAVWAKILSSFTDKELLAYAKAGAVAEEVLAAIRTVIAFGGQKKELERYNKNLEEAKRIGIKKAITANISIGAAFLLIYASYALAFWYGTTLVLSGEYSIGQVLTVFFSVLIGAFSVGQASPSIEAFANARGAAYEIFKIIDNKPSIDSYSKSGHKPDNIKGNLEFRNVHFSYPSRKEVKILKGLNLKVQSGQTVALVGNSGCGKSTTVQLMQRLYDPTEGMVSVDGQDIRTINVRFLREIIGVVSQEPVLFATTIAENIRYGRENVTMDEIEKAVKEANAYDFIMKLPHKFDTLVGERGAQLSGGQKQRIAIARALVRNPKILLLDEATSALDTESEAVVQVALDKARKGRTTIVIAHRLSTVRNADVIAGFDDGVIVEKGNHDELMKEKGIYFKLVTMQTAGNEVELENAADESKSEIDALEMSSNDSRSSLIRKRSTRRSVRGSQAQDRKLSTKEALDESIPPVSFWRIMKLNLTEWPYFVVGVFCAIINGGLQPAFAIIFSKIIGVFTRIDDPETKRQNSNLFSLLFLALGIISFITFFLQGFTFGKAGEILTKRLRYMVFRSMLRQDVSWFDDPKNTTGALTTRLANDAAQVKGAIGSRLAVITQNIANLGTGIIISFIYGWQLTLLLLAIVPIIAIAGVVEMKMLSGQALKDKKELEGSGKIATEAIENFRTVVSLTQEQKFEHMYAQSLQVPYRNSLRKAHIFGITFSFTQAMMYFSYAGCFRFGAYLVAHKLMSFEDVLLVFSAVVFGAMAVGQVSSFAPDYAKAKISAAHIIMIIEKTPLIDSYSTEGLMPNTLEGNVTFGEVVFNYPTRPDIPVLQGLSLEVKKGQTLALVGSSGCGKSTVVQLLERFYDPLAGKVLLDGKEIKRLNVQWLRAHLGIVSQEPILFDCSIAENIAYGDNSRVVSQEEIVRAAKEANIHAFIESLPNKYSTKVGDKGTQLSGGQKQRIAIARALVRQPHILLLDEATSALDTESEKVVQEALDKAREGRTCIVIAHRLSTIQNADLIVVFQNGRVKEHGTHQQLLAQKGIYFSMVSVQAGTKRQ

[4] = molecular target: human multidrug resistance protein 2 (MRP2) (ABCC2) (Homo sapiens, UniProt Q92887); assay: CPT directional transport across MDCK II/MRP2 cell monolayers; format: in vitro ADME
[5] = format: in vitro ADME; conditions: rat intestinal and liver s9 fractions and microsomes; data not shown
[6] = cited from earlier work; for observed variability in the area under the curve: oral
Caco-2 cells [7] = assay: Inhibition of CPT efflux; format: in vitro ADME, human; conditions: for decrease of CPT secretory permeability in the presence of inhibitor: BL to AP
[8] = read-out: Km value of etoposide; estimated in the authors' laboratory; cited from earlier work
[9] = tested on: CC[C@@]1(O)C(=O)OCc2c1cc1n(c2=O)Cc2cc3ccccc3nc2-1; assay: CPT directional transport across MDCK II/PGP cell monolayers; format: in vitro ADME, human; conditions: other: MDCK II/PGP, 37.0 °C
[10] = substrate: CC[C@@]1(O)C(=O)OCc2c1cc1n(c2=O)Cc2cc3ccccc3nc2-1; assay: CPT directional transport across MDCK II/MRP2 cell monolayers; format: in vitro ADME, human; conditions: other: MDCK II/MRP2, 37.0 °C
[11] = orally administered, clinical evaluation

With `CC[C@@]1(O)C(=O)OCc2c1cc1n(c2=O)Cc2cc3ccccc3nc2-1` [CPT, 20-(S)-camptothecin] the efflux ratio at 105 min [1] was roughly 1, the “Pc carrier permeability, absorptive” value (MDCK II/wt cells; AP to BL) was 2.5 ± 0.7 cm/s × 10^5 and the “Pc carrier permeability, secretory” value (MDCK II/wt cells; BL to AP) was 2.0 ± 0.2 cm/s × 10^5. The Km (MDCK II/wt cells; read-out: Km, absorptive (apical to bisolateral), AP to BL) was 71.5 ± 9.7 µM, the Km (MDCK II/wt cells; read-out: Km, secretory (bisolateral to apical), BL to AP) was 81.3 ± 14.6 µM and the “Pc carrier permeability, absorptive” value (Caco-2 cells [2]; AP to BL) was 8.3 ± 0.3 cm/s × 10^5. The “Pm passive permeability, absorptive” value (Caco-2 cells [2]; AP to BL, estimated as Peff at 4°C) was 0.43 ± 0.05^a cm/s × 10^5, the “Pc carrier permeability, secretory” value (Caco-2 cells [2]; BL to AP) was 2.1 ± 0.1 cm/s × 10^5 and the “energy of activation (Ea) of efflux” value (Caco-2 cells [2]; BL to AP, Arrhenius plot, 4°C to 37°C) was ~ 11.3 kcal/mole. The “Pm passive permeability, secretory” value (Caco-2 cells [2]; BL to AP, estimated as efflux Peff at 4°C) was 0.35 ± 0.04^a cm/s × 10^5, the “Pc for CPT secretory efflux” value (Caco-2 cells [2]; BL to AP, weighted nonlinear regression) was 2.1 ± 0.1 × 10^-5 cm/s and the Km (Caco-2 cells [2]; read-out: Km, secretory (bisolateral to apical), BL to AP, weighted nonlinear regression) was 132 µM and 133 µM. For the same molecule, the “Pc carrier permeability, absorptive” value ([3]; AP to BL) was 2.2 ± 0.5 cm/s × 10^5, the “Pc carrier permeability, secretory” value ([3]; BL to AP) was 4.1 ± 0.4 cm/s × 10^5 and the “Pc carrier permeability, absorptive” value ([4]; AP to BL) was 2.5 ± 0.4 cm/s × 10^5. For the same molecule, the “Pc carrier permeability, secretory” value ([4]; BL to AP) was 4.3 ± 0.7 cm/s × 10^5, the degradation on incubation [5] was “Minimal degradation” and the “variability in the area under the curve” value [6, 11] was 164%. The “variability in the bioavailability” value [6, 11] was 10 fold.

In the case of `CCc1c2c(nc3ccc(OC(=O)N4CCC(N5CCCCC5)CC4)cc13)-c1cc3c(c(=O)n1C2)COC(=O)[C@]3(O)CC` [CPT-11, irinotecan], the “observed variability in the area under the curve” value [6] is given as 50%.

In the case of `COc1cc2c(cc1OC)CN(CCc1ccc(NC(=O)c3cccc4c(=O)c5cccc(OC)c5[nH]c34)cc1)CC2` [GF120918], the “decrease of CPT secretory permeability in the presence of inhibitor” value (Caco-2 cells [7]) is reported as 52.5%, the “reduction of CPT efflux” value (Caco-2 cells [7]; GF120918 0.4 μM, CPT 10 μM) is reported as 2.1 fold and the “effect of increasing inhibitor concentration on CPT efflux” value (Caco-2 cells [7]; GF120918 0.8–1.2 μM, data not shown) is reported as “not further reduced”.

For `CC[C@@]1(O)C(=O)OCc2c1cc1n(c2=O)Cc2cc3c(CN(C)C)c(O)ccc3nc2-1` [TPT, topotecan], the “observed variability in the area under the curve” value [6] is listed as 41%.

For `COc1cc([C@@H]2c3cc4c(cc3[C@@H](O[C@@H]3O[C@@H]5CO[C@@H](C)O[C@H]5[C@H](O)[C@H]3O)[C@H]3COC(=O)[C@H]23)OCO4)cc(OC)c1O` [etoposide], the Km [8] is listed as roughly 213 µM, the “decrease of CPT secretory permeability in the presence of inhibitor” value (Caco-2 cells [7]) is listed as 25.6% and the “reduction of CPT efflux permeability” value (Caco-2 cells [7]; etoposide 200 μM, CPT 10 μM) is listed as 1.3 fold.

With “human P-glycoprotein (PGP) (ABCB1) (Homo sapiens)” the Km ([9]; AP to BL) was 69.7 ± 7.6 µM and the Km ([9]; BL to AP) was 36.3 ± 7.5 µM.

B1: human multidrug resistance protein 2 (MRP2) (ABCC2) (Homo sapiens) (protein)
chain: MLEKFCNSTFWNSSFLDSPEADLPLCFEQTVLVWIPLGYLWLLAPWQLLHVYKSRTKRSSTTKLYLAKQVFVGFLLILAAIELALVLTEDSGQATVPAVRYTNPSLYLGTWLLVLLIQYSRQWCVQKNSWFLSLFWILSILCGTFQFQTLIRTLLQGDNSNLAYSCLFFISYGFQILILIFSAFSENNESSNNPSSIASFLSSITYSWYDSIILKGYKRPLTLEDVWEVDEEMKTKTLVSKFETHMKRELQKARRALQRRQEKSSQQNSGARLPGLNKNQSQSQDALVLEDVEKKKKKSGTKKDVPKSWLMKALFKTFYMVLLKSFLLKLVNDIFTFVSPQLLKLLISFASDRDTYLWIGYLCAILLFTAALIQSFCLQCYFQLCFKLGVKVRTAIMASVYKKALTLSNLARKEYTVGETVNLMSVDAQKLMDVTNFMHMLWSSVLQIVLSIFFLWRELGPSVLAGVGVMVLVIPINAILSTKSKTIQVKNMKNKDKRLKIMNEILSGIKILKYFAWEPSFRDQVQNLRKKELKNLLAFSQLQCVVIFVFQLTPVLVSVVTFSVYVLVDSNNILDAQKAFTSITLFNILRFPLSMLPMMISSMLQASVSTERLEKYLGGDDLDTSAIRHDCNFDKAMQFSEASFTWEHDSEATVRDVNLDIMAGQLVAVIGPVGSGKSSLISAMLGEMENVHGHITIKGTTAYVPQQSWIQNGTIKDNILFGTEFNEKRYQQVLEACALLPDLEMLPGGDLAEIGEKGINLSGGQKQRISLARATYQNLDIYLLDDPLSAVDAHVGKHIFNKVLGPNGLLKGKTRLLVTHSMHFLPQVDEIVVLGNGTIVEKGSYSALLAKKGEFAKNLKTFLRHTGPEEEATVHDGSEEEDDDYGLISSVEEIPEDAASITMRRENSFRRTLSRSSRSNGRHLKSLRNSLKTRNVNSLKEDEELVKGQKLIKKEFIETGKVKFSIYLEYLQAIGLFSIFFIILAFVMNSVAFIGSNLWLSAWTSDSKIFNSTDYPASQRDMRVGVYGALGLAQGIFVFIAHFWSAFGFVHASNILHKQLLNNILRAPMRFFDTTPTGRIVNRFAGDISTVDDTLPQSLRSWITCFLGIISTLVMICMATPVFTIIVIPLGIIYVSVQMFYVSTSRQLRRLDSVTRSPIYSHFSETVSGLPVIRAFEHQQRFLKHNEVRIDTNQKCVFSWITSNRWLAIRLELVGNLTVFFSALMMVIYRDTLSGDTVGFVLSNALNITQTLNWLVRMTSEIETNIVAVERITEYTKVENEAPWVTDKRPPPDWPSKGKIQFNNYQVRYRPELDLVLRGITCDIGSMEKIGVVGRTGAGKSSLTNCLFRILEAAGGQIIIDGVDIASIGLHDLREKLTIIPQDPILFSGSLRMNLDPFNNYSDEEIWKALELAHLKSFVASLQLGLSHEVTEAGGNLSIGQRQLLCLGRALLRKSKILVLDEATAAVDLETDNLIQTTIQNEFAHCTVITIAHRLHTIMDSDKVMVLDNGKIIECGSPEELLQIPGPFYFMAKEAGIENVNSTKF
B1 showed a Km ([10]; AP to BL) of 101.2 ± 17.8 µM and a Km ([10]; BL to AP) of 65.8 ± 6.7 µM.
